Experiments:
Histone deacetylase 3 = Histone deacetylase 3 (Homo sapiens, UniProt O15379); experiment: Inhibition of recombinant full length human HDAC3 expressed in baculovirus infected Sf9 cells using FAM-RHKK-Ac as substrate incubated for 3 hrs by electrophoretic mobility shift assay
[1] = target: T1, Protein deacetylase HDAC6 (Homo sapiens, UniProt Q9UBN7); experiment: Inhibition of recombinant full length human HDAC6 expressed in baculovirus infected Sf9 cells using FAM-RHKK-Ac as substrate incubated for 5 hrs by electrophoretic mobility shift assay
T1 sequence (Q9UBN7 whole entry): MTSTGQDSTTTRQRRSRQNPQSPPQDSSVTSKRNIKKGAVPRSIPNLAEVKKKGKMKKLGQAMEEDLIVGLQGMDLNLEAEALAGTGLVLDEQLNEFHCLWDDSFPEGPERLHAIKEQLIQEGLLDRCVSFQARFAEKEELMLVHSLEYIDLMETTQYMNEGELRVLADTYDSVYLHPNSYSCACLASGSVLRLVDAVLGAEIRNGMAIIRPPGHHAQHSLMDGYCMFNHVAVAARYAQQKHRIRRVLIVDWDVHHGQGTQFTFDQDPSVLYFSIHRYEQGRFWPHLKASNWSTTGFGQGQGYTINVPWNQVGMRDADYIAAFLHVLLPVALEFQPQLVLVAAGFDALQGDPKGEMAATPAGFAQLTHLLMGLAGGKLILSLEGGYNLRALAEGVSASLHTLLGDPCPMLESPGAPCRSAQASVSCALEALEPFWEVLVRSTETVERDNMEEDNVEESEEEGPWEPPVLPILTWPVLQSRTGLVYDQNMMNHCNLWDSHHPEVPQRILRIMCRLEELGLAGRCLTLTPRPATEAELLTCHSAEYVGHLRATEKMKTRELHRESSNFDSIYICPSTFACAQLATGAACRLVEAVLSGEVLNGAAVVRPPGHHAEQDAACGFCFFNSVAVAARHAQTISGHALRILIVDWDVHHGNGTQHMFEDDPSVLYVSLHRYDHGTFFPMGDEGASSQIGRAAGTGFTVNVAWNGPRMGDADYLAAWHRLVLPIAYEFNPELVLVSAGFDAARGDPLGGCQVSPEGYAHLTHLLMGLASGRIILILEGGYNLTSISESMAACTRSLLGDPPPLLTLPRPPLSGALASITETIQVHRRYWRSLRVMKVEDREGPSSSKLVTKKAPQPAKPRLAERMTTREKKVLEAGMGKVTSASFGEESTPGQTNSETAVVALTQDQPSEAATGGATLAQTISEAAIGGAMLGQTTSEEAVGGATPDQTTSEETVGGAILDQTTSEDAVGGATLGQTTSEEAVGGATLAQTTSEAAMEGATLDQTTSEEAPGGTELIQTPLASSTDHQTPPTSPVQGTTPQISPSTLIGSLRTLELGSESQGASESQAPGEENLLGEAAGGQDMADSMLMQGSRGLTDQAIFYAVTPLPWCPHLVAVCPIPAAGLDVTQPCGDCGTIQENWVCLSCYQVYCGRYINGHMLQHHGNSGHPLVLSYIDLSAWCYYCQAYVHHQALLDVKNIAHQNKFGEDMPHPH

Histone deacetylase 8 = target: T2, Histone deacetylase 8 (Homo sapiens, UniProt Q9BY41); experiment: Inhibition of recombinant full length human HDAC8 expressed in baculovirus infected Sf9 cells using FAM-RHKK-TFAc as substrate incubated for 3 hrs by electrophoretic mobility shift assay
T2 sequence (Q9BY41 whole entry): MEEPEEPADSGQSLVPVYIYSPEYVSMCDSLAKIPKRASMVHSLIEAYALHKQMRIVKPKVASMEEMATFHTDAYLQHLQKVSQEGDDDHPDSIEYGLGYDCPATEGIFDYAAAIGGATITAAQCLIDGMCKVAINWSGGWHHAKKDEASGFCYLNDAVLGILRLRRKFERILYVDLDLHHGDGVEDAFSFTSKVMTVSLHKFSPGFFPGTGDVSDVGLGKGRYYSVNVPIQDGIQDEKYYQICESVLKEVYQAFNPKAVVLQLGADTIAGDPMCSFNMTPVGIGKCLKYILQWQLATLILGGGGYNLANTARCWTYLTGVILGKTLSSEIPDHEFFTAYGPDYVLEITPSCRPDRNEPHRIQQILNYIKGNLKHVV

Histone deacetylase 11 = target: T3, Histone deacetylase 11 (Homo sapiens, UniProt Q96DB2); experiment: Inhibition of recombinant full length human HDAC11 expressed in baculovirus infected Sf9 cells using FAM-RHKK-TFAc as substrate incubated for 17 hrs by electrophoretic mobility shift assay
T3 sequence (Q96DB2 whole entry): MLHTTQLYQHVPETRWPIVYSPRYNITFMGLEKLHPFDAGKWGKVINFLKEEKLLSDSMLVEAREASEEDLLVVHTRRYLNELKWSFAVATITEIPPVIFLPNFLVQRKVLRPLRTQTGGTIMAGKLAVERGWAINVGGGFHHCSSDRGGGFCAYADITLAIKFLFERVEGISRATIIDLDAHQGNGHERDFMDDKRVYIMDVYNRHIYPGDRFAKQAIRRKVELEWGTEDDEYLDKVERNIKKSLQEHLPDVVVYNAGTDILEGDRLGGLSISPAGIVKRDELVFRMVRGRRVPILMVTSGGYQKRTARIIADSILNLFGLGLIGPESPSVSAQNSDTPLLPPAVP

[2] = target: T1, Protein deacetylase HDAC6; experiment: Inhibition of recombinant full length human HDAC6 expressed in baculovirus infected Sf9 cells assessed as inhibitory constant using FAM-RHKK-Ac as substrate incubated for 5 hrs by electrophoretic mobility shift assay
MV4-11 = experiment: Cytotoxicity against human MV4-11 cells assessed as reduction in cell viability incubated for 72 hrs by cell-titer blue assay; type: functional, cell-based; conditions: MV4-11, 72 h
MOLM-13 = experiment: Cytotoxicity against human MOLM13 cells assessed as reduction in cell viability incubated for 72 hrs by cell-titer blue assay; type: functional, cell-based; conditions: MOLM-13, 72 h
MDA-MB-231 = experiment: Cytotoxicity against human MDA-MB-231 cells assessed as reduction in cell viability incubated for 72 hrs by cell-titer blue assay; type: functional, cell-based; conditions: MDA-MB-231, 72 h
MDA-MB-468 = experiment: Cytotoxicity against human MDA-MB-468 cells assessed as reduction in cell viability incubated for 72 hrs by cell-titer blue assay; type: functional, cell-based; conditions: MDA-MB-468, 72 h
[3] = Cytotoxicity against human MRC9 cells assessed as reduction in cell viability incubated for 72 hrs by cell-titer blue assay; type: cell-based; conditions: MRC9, 72 h
Histone deacetylase 5 = Histone deacetylase 5 (Homo sapiens, UniProt Q9UQL6); experiment: Inhibition of recombinant full length human HDAC5 expressed in baculovirus infected Sf9 cells using FAM-RHKK-TFAc as substrate incubated for 3 hrs by electrophoretic mobility shift assay
Chain of Histone deacetylase 5 (Q9UQL6 whole entry, the tested form may be a part): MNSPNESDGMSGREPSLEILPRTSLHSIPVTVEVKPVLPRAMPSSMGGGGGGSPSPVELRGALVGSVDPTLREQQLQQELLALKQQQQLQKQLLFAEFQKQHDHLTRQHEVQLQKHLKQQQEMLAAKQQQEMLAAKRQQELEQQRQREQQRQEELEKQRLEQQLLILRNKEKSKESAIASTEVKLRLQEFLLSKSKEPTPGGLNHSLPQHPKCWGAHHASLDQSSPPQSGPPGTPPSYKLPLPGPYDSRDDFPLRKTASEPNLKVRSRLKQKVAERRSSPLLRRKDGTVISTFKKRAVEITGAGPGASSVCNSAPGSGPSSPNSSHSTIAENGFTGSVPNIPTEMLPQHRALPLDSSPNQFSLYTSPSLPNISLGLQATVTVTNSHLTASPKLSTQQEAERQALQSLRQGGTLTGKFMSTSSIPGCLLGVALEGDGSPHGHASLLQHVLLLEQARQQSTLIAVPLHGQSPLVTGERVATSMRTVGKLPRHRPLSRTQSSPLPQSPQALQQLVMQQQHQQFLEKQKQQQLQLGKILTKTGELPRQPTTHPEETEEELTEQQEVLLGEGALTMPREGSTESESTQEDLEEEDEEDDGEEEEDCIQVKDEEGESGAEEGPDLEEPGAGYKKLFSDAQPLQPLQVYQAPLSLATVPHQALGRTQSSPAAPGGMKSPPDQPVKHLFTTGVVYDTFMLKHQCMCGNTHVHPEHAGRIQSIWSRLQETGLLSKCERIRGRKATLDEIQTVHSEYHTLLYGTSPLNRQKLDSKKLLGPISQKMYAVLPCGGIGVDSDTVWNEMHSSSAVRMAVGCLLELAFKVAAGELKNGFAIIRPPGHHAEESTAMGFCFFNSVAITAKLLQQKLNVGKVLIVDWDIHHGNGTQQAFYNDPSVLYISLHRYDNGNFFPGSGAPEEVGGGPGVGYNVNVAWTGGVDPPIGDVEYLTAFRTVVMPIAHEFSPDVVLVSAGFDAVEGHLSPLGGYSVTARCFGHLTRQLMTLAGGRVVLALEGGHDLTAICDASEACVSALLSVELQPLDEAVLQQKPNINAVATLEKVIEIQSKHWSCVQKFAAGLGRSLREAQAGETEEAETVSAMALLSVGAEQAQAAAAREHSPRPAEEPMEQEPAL

Histone deacetylase 9 = Histone deacetylase 9 (Homo sapiens, UniProt Q9UKV0); experiment: Inhibition of recombinant human HDAC9 (604-1066 residues) expressed in baculovirus infected Sf9 cells using FAM-RHKK-TFAc as substrate incubated for 3 hrs by electrophoretic mobility shift assay
Chain of Histone deacetylase 9 (Q9UKV0 whole entry, the tested form may be a part): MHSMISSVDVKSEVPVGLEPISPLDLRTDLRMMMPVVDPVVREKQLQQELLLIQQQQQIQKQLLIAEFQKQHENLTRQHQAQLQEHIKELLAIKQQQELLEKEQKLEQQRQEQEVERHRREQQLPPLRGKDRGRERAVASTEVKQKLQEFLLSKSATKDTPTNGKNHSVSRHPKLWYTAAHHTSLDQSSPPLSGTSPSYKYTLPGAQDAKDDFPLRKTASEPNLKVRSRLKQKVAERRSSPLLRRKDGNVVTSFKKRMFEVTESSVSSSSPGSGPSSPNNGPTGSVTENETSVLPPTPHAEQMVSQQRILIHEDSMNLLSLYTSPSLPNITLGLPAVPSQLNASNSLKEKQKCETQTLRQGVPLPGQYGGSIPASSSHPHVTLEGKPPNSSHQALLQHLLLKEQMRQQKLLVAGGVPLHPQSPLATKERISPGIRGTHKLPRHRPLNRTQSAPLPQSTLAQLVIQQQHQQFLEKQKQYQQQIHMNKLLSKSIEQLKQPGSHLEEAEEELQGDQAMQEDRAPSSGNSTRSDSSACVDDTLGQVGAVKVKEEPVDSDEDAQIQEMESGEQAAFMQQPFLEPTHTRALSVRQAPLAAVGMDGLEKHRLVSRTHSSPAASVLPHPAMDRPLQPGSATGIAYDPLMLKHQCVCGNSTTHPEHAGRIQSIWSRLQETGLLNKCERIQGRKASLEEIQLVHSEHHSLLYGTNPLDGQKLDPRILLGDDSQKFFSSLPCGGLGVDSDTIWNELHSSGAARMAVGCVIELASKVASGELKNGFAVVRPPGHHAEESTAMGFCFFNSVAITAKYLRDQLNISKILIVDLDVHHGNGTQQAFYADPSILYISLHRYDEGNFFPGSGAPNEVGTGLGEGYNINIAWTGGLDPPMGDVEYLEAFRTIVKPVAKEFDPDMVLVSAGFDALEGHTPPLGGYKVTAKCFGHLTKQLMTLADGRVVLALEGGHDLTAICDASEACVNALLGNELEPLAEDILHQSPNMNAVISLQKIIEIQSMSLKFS

[4] = target: T4, Polyamine deacetylase HDAC10 (Homo sapiens, UniProt Q969S8); experiment: Inhibition of recombinant full length human HDAC10 expressed in baculovirus infected Sf9 cells using FAM-RHKK-Ac as substrate incubated for 17 hrs by electrophoretic mobility shift assay
T4 sequence (Q969S8 whole entry): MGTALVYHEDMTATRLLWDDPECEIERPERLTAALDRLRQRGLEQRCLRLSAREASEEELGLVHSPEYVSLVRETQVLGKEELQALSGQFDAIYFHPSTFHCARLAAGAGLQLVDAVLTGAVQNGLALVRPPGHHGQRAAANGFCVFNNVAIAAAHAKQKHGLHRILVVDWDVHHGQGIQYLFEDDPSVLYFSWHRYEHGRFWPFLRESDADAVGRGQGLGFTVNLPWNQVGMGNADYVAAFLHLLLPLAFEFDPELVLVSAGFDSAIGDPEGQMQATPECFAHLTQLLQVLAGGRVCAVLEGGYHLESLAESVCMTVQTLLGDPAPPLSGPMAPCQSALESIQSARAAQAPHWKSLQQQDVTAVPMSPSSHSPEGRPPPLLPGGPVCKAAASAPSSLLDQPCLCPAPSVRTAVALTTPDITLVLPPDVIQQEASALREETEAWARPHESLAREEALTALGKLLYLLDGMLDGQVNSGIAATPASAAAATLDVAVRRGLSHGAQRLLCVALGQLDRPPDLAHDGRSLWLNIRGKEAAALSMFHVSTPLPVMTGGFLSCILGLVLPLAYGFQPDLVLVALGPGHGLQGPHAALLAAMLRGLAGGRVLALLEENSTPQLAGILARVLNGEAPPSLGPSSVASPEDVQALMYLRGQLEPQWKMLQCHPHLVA

[5] = Efflux ratio of apparent permeability in human Caco2 cells incubated for 2 hrs by LC/MS analysis; type: ADME, cell-based, Caco-2; conditions: Caco-2

Chain of Histone deacetylase 3 (O15379 whole entry): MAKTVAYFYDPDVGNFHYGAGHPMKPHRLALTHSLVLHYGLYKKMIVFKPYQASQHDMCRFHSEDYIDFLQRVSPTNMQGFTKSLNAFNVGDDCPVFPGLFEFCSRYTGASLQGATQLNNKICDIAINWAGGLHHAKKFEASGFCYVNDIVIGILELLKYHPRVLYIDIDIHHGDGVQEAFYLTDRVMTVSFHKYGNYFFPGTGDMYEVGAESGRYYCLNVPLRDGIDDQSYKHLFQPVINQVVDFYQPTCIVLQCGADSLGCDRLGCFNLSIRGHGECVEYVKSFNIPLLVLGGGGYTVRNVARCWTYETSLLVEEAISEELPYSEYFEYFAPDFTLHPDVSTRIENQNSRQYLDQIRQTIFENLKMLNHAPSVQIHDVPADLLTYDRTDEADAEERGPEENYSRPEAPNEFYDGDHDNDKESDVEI

Structure (SMILES) | IC50 (Histone deacetylase 3) [nM] | IC50 [1] [nM] | IC50 (Histone deacetylase 8) [nM] | IC50 (Histone deacetylase 11) [nM] | Ki [2] [nM] | IC50 (Histone deacetylase 5) [nM] | IC50 (Histone deacetylase 9) [nM] | IC50 [4] [nM] | IC50 (MV4-11) [µM] | IC50 (MOLM-13) [µM] | IC50 (MDA-MB-231) [µM] | IC50 (MDA-MB-468) [µM] | IC50 [3] [µM] | efflux ratio at 2 h [5]
CN(C(=O)CN(Cc1c(F)c(F)c(F)c(F)c1F)S(=O)(=O)c1ccc(F)cc1)c1ccc(C(=O)NO)cc1 | 213 | 20.1 | 224 | > 1000 | 573 |  |  |  | 3.24 | 14.1 | > 25 | > 25 | > 25 | 
CC(C)(C)c1ccc(CN(C(=O)CN(Cc2c(F)c(F)c(F)c(F)c2F)S(C)(=O)=O)c2ccc(C(=O)NO)cc2)cc1 | 213 | 27.7 | 133 | > 1000 | 1090 |  |  |  | 1.62 | 2.98 | > 12.5 | > 25 | > 25 | 
CC(C)(C)c1ccc(CN(C(=O)CNS(=O)(=O)c2ccc(F)cc2)c2ccc(C(=O)NO)cc2)cc1 | 372 | 52.8 | 28 | 665 | 293 |  |  |  | 3.33 | 5.11 |  | > 12.5 | 10.8 | 
C[C@H]1O[C@@H](O[C@H]2[C@@H](O)C[C@H](O[C@H]3[C@@H](O)C[C@H](O[C@H]4CC[C@@]5(C)[C@H](CC[C@@H]6[C@@H]5C[C@@H](O)[C@]5(C)[C@@H](C7=CC(=O)OC7)CC[C@]65O)C4)O[C@@H]3C)O[C@@H]2C)C[C@H](O)[C@@H]1O [DIGOXIN] |  |  |  |  |  |  |  |  |  |  |  |  |  | 73
CN(C(=O)CN(C)S(=O)(=O)c1ccc(F)cc1)c1ccc(C(=O)NO)cc1 | 708 | 117 | 573 | > 1000 | 793 |  |  |  | 14.6 | 24.8 |  |  |  | 
CC(C)(C)c1ccc(CNc2ccc(C(=O)NO)cc2)cc1 | 503 | 110 | > 1000 | > 1000 | 451 |  |  |  | 3.49 | 9.47 | > 25 | > 25 | 16.1 | 
CN(CC(=O)N(Cc1ccc(C(C)(C)C)cc1)c1ccc(C(=O)NO)cc1)S(=O)(=O)c1ccc(F)cc1 | 492 | 55.2 | 37.9 | 697 | 768 |  |  |  | 3.41 | 5.46 | > 25 | > 12.5 | 11.8 | 
COCCc1ccc(OCC(O)CNC(C)C)cc1 (configuration not stated) [METOPROLOL] |  |  |  |  |  |  |  |  |  |  |  |  |  | 1
O=C(NO)c1ccc(N(Cc2ccccc2)C(=O)CN(Cc2c(F)c(F)c(F)c(F)c2F)S(=O)(=O)c2ccc(F)cc2)cc1 | 132 | 1.49 | 90.6 | 51.9 | 1860 |  |  |  | 5.8 | 8.05 |  |  |  | 

Second part, led by results:

IC50 (Histone deacetylase 3) [nM] | IC50 [1] [nM] | IC50 (Histone deacetylase 8) [nM] | IC50 (Histone deacetylase 11) [nM] | Ki [2] [nM] | IC50 (Histone deacetylase 5) [nM] | IC50 (Histone deacetylase 9) [nM] | IC50 [4] [nM] | Structure (SMILES) | IC50 (MV4-11) [µM] | IC50 (MOLM-13) [µM] | IC50 (MDA-MB-231) [µM] | IC50 (MDA-MB-468) [µM] | IC50 [3] [µM] | efflux ratio at 2 h [5]
374 | 28.2 | 635 | 837 | 201 |  |  |  | CC(C)(C)OC(=O)N(Cc1ccc(C(C)(C)C)cc1)c1ccc(C(=O)NO)cc1 | 3.12 | 10.3 | > 25 | > 25 | 9.49 | 
 |  |  |  |  | 5.95 | 6.7 | 1.96 | Cn1cc(CNCC2CCN(c3ncc(C(=O)NO)cn3)CC2)c2ccccc21 [QUISINOSTAT] |  |  |  |  |  | 
276 | 71.3 | 85.4 | > 1000 | 199 |  |  |  | CC(=O)N(Cc1ccc(C(C)(C)C)cc1)c1ccc(C(=O)NO)cc1 | 4.24 | 10.6 | > 25 | > 25 |  | 

Source: ChEMBL document CHEMBL4373747 (ACS Med Chem Lett, 2020)
